# Data published in patent publication US7652047B2, “Phenylamino isothiazole carboxamidines as MEK inhibitors” (Ardea Biosciences, Inc., priority 2005, dated 2010).
# Biological target: T1, MEK1^CA (human GST-MEK1, constitutively active, Ser218Asp and Ser222Asp) (Homo sapiens, UniProt Q02750, S218D/S222D)
# T1 construct: GST; made in house; host or cells: Escherichia coli
# Assay: MEK1 enzymatic activity assay (MEK1^CA / ERK2 / MBP, [γ-33P]ATP incorporation)
# Assay type: biochemical
# Details: Table 1, compounds of formula I; read-out: Avg IC50
# Summary of the method: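 Cascade assay: 25 µl reactions with 0.002 nmol E. coli-expressed GST-MEK1 S218D/S222D, 0.02 nmol His-tagged mouse ERK2, 0.25 nmol MBP, 0.25 nmol unlabeled ATP and 0.1 µCi [γ-33P]ATP. Compound preincubated 30 min at ambient temperature with MEK1/ERK2; stopped with TCA, 33P-labelled protein filter-captured and scintillation-counted.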
# T1 sequence (Q02750 whole entry S218D/S222D): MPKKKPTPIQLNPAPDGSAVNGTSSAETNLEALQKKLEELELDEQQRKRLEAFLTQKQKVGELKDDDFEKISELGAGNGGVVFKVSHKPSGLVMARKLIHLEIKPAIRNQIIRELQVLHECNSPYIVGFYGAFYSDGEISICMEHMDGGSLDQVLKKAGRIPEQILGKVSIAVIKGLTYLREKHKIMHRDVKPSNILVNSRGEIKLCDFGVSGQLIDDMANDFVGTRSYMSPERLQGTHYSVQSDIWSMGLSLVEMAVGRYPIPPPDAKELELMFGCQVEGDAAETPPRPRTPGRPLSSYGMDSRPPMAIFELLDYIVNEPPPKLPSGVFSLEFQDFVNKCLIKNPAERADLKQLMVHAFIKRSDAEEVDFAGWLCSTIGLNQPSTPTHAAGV
row,SMILES,IC50 [nM]
1,Cc1ccc(Oc2ccc(Nc3snc(O)c3C(=N)NC(C)C)cc2)cn1 [compound 259],> 500
2,CC(=O)NC(=N)c1c(O)nsc1Nc1ccc(Oc2ccccc2)cc1 [compound 150],> 500
3,N=C(NCC1CCCCC1)c1c(O)nsc1NCCc1ccccc1 [compound 120],> 500
4,N=C(NCC1CCCCC1)c1c(O)nsc1Nc1ccc(/C=C/c2ccccc2)cc1 [compound 133],> 500

# Further lines, results first:
row,IC50 [nM],SMILES
1,1 to 100,Cc1ccc(F)c(Oc2ccc(Nc3snc(O)c3C(=N)NC(C)CO)cc2)c1 (stereo not drawn) [compound 348]
2,1 to 100,N=C(NCC1CCCCC1)c1c(O)nsc1Nc1ccc(Oc2ccc(F)cc2)cc1 [compound 142]
3,1 to 100,CC(C)NC(=N)c1c(O)nsc1Nc1ccc(Oc2cc(F)cc(F)c2)cc1 [compound 287]
4,> 500,N=C(NCC1CCCCC1)c1c(O)nsc1Nc1ccc(CO)cc1 [compound 57]
5,1 to 100,CC(CO)NC(=N)c1c(O)nsc1Nc1ccc(Oc2ccccc2Br)cc1 (stereo not drawn) [compound 295]
6,100 to 500,N=C(NCC1CCCCC1)c1c(O)nsc1Nc1ccc(Cc2ccccc2)cc1 [compound 127]
7,100 to 500,CC(O)CNC(=N)c1c(O)nsc1Nc1ccc(Oc2ccccc2)cc1 (stereo not drawn) [compound 156]
8,1 to 100,CN(C)CCNC(=N)c1c(O)nsc1Nc1ccc(Oc2cc(Cl)ccc2Cl)cc1 [compound 443]
9,1 to 100,Cc1cc(Oc2cccc(F)c2F)ccc1Nc1snc(O)c1C(=N)NC(C)CO (stereo not drawn) [compound 464]
10,> 500,Cc1cc(Nc2snc(O)c2C(=N)NC(C)CO)ccc1Oc1ccc(C(F)(F)F)cc1 (stereo not drawn) [compound 386]
11,100 to 500,N=C(NCC(O)CO)c1c(O)nsc1Nc1cccc(Br)c1 (stereo not drawn) [compound 73]
12,> 500,N=C(NCCO)c1c(O)nsc1Nc1ccc(C2CCCCC2)cc1 [compound 172]
13,1 to 100,CC(C)NC(=N)c1c(O)nsc1Nc1ccc(Oc2cccc(C(F)(F)F)c2Cl)cc1 [compound 269]
14,1 to 100,Cc1ccc(Oc2ccc(Nc3snc(O)c3C(=N)NC(C)C)cc2)cc1 [compound 246]
15,> 500,N=C(NCC1CCCCC1)c1c(O)nsc1Nc1ccc(N2CCCCC2)cc1 [compound 123]
16,1 to 100,Cc1cc(C)cc(Oc2ccc(Nc3snc(O)c3C(=N)NC(C)C)cc2)c1 [compound 267]
17,> 500,N=C(NCCN1CCOCC1)c1c(Nc2ccc(Oc3ccccc3)cc2)s[nH]c1=O [Cpd 26]
18,1 to 100,CC(C)NC(=N)c1c(O)nsc1Nc1ccc(Oc2cc(F)ccc2Cl)c(F)c1 [compound 319]
19,100 to 500,CC(C)NC(=N)c1c(O)nsc1Nc1ccc(Oc2ccc(Cl)cc2)c(Cl)c1 [compound 361]

# Same assay, conditions: Table 4, R' is (CH2)1 or 2-G; read-out: IC50
row,SMILES,IC50 [nM]
1,N=C(NCCc1ccccc1)c1c(O)nsc1Nc1ccc(Oc2ccccc2)cc1 [drawing 821],100 to 500
2,N=C(NCCN1CCCC1=O)c1c(O)nsc1Nc1ccc(Oc2cc(Cl)ccc2Cl)cc1,1 to 100
3,CC1CN(CCNC(=N)c2c(O)nsc2Nc2ccc(Oc3cc(Cl)ccc3Cl)cc2)CC(C)O1 (stereo not drawn),100 to 500
4,N=C(NCCc1cnc[nH]1)c1c(O)nsc1Nc1ccc(Oc2cc(Cl)ccc2Cl)cc1,1 to 100

# System: phosphorylated ERK in MDA-MB-231 breast cancer cells
# Assay: Western blotting for phosphorylated ERK in EGF-stimulated MDA-MB-231 cells
# Assay type: cell-based
# Details: Homo sapiens, Table 4, compound 30 min, 100 ng/ml EGF 5 min
# Method: Effects of compounds in the cell were determined by Western blotting for phosphorylated ERK. MDA-MB-231 breast cancer cells were plated in a 48 well plate at 20,000 cells per well and grown in a 37° humidified CO2 incubator. The following day, the growth media (DMEM+10% fetal bovine serum) was removed and replaced with starve media (DMEM+0.1% fetal bovine serum). Cells were incubated in the starve media for sixteen hours and then treated with a range of compound concentrations for thirty minutes. After incubation with compound, cells were stimulated with 100 ng/ml EGF for five minutes. The cells were then lysed and analyzed by Western blot using a monoclonal antibody raised to phosphorylated ERK. The signal was amplified using a secondary antibody conjugated to a near-IR dye and detected on a Licor Odyssey scanner.
row,SMILES,EC50 [nM]
1,N=C(NCCN1CCNC(=O)C1)c1c(O)nsc1Nc1ccc(Oc2cc(Cl)ccc2Cl)cc1,1 to 100
2,N=C(NCCN1CCOCC1)c1c(O)nsc1Nc1ccc(Oc2cc(Cl)ccc2Cl)cc1,1 to 100
3,N=C(NCCc1ccccc1)c1c(O)nsc1Nc1ccc(Oc2ccccc2)cc1 [drawing 821],100 to 500
4,N=C(NCC1CCCO1)c1c(O)nsc1Nc1ccc(Oc2cc(Cl)ccc2Cl)cc1 (stereo not drawn),1 to 100
5,N=C(NCCN1CCCC1=O)c1c(O)nsc1Nc1ccc(Oc2cc(Cl)ccc2Cl)cc1,100 to 500
6,N=C(NCCN1CCNCC1)c1c(O)nsc1Nc1ccc(Oc2cc(Cl)ccc2Cl)cc1,1 to 100
7,CC1CN(CCNC(=N)c2c(O)nsc2Nc2ccc(Oc3cc(Cl)ccc3Cl)cc2)CC(C)O1 (stereo not drawn),100 to 500
8,N=C(NCCc1cnc[nH]1)c1c(O)nsc1Nc1ccc(Oc2cc(Cl)ccc2Cl)cc1,1 to 100
9,CN1CCN(CCNC(=N)c2c(O)nsc2Nc2ccc(Oc3cc(Cl)ccc3Cl)cc2)CC1,100 to 500
